Data as given in US12065427B2, “Heterocyclic compounds capable of activating STING” (BOEHRINGER INGELHEIM INTERNATIONAL GMBH, priority 2021, dated 2024).

Key:
[1] = tested on: Human STING (hSTING, residues 155-341); assay: Interaction with hSTING as determined by Differential Scanning Fluorimetry (DSF); format: binding; conditions: 100 μM test compounds, 5 μM target protein
Procedure: Interaction with hSTING as Determined by Differential Scanning Fluorimetry (DSF)
In DSF, the temperature at which a protein unfolds, also called the melting temperature Tm, is measured by changes in fluorescence of a dye that binds to the hydrophobic parts of the protein. Tm shifts upon binding of a small molecule are correlated with the binding affinity of this small molecule. As target protein, Human STING (hSTING, residues 155-341, MW: 21578.4 Da; protein stock solution: c=1302 μM stock solution in 20 mM Tris, 100 mM NaCl, 2 mM TCEP pH 8.8) was used, as assay buffer 20 mM Tris, 150 mM NaCI pH7.5 was added where and as necessary.
Final concentrations of components in assay: 100 μM test compounds, 5 μM target protein, “5×” SYPR Orange (from stock solution SYPRO orange solution in DMSO (invitrogen cat.-no. S6650-500 ul), concentration “5000×”)
1) Dilutions of compound stock solutions (10 mM in DMSO) were prepared in assay buffer (20 mM Tris, 150 mM NaCl; pH7.5)
2) 5 μl fluorescent dye stock solution (5000×SYPRO Orange in DMSO) was mixed with 19 μl target protein (1302 μM) and 976 μl assay buffer.
3) 2 μl of this protein-dye-mixture (25×SYPRO Orange and 25 μM Protein) was added to 8 μl diluted compound solution as prepared in step 1. Final volume was 10 μl.
4) With every 20 compounds, two negative controls were measured.
5) The plates were prepared for duplicate measurement and centrifuged for 2 min at 1000 g.
6) For the measurement, a CFX384 Real-Time System (Bio-Rad) was used. The run consisted of 140 cycles with 0.5° C./cycle (temperature ramp 15 s/cycle, 25° C. to 95° C.).
Data analysis: The melting curves were processed in Bio-Rad CFX Manager. Peak type was set to “negative”. Two replicates of TM (melting temperature) measurements were averaged and the standard deviation was calculated.

STING HAQ-variant = target: T1, STING HAQ-variant (Homo sapiens, UniProt Q86WV6, G230A/H232R/R293Q/R71H); assay: IRF-inducible SEAP reporter assay in THP1-Blue ISG cells, STING HAQ-variant; format: cell-based; conditions: STING HAQ-variant (parental or re-introduced), 24 hours incubation
T1 construct: parental THP1-Blue™ ISG cell lines (which express endogenously HAQ); host or cells: THP1-Blue ISG (parental, endogenous HAQ) or STING-KO clone re-transduced with HAQ (MSCV-ires-GFP-Blasti)
T1 sequence (Q86WV6 whole entry R71H/G230A/H232R/R293Q): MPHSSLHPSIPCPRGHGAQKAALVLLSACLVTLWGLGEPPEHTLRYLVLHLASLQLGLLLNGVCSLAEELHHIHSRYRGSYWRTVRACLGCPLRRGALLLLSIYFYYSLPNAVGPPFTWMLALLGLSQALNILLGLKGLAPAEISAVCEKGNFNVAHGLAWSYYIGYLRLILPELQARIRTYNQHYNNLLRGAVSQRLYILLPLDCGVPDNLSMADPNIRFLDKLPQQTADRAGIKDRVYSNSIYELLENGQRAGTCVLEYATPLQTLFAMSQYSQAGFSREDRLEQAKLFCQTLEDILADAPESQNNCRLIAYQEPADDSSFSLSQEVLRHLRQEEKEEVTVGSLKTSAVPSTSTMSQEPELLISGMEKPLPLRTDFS
Description: In Vitro Cytokine Induction Measured Via Activation of an Interferon Regulatory Factor Inducible Reporter Gene
Activation of the STING protein expressed in cell lines results in an increase of interferon production. By the stable integration of an interferon regulatory factor (IRF)-inducible SEAP gene (secreted embryonic alkaline phosphatase) reporter construct the functional interferon signaling pathway can be monitored. Using Invivogen's THP1-Blue™ ISG colorimetric enzyme assay and a suitable optical density (OD) reader the activity of SEAP can be detected and quantified. This technique could be used to characterize pharmacological modification of the STING pathway.
Several single nucleotide polymorphisms have been identified in the human STING gene. To determine the activity of the above described compounds, THP1-Blue™ ISG reporter cell lines expressing the different human STING variants have been generated. To do so, the endogenous human STING was first deleted using the CRISPR/CAS9 system: THP1-Blue ISG cells were electroporated with ALL-IN-ONE CRISPR plasmids targeting the STING gene (purchased from Sigma encoding the gRNA and GFP as a reporter gene for successful transduction). GFP positive cells then were sorted 24 h post transfection and expanded. Cells were then dispersed in semisolid methocel medium to allow single cell clone isolations. Clones were then screened for cGAMP responsiveness using the Quanti-Blue™ reporter assay. Non-responsive clones were subsequently analysed for STING loss by western blotting and sequencing of the STING locus.
For the overexpression of the human STING variants, a confirmed THP1-Blue™ ISG hSTING KO clone was transduced with individual retroviral plasmids (MSCV-ires-GFP-Blasti) encoding the allelic variants of hSTING (WT (H232R), HAQ, R232H, AQ and R293Q). Transduced cells were sorted for different levels of GFP fluorescence and STING allele expression was analysed by western blot.
Measurements of SEAP activity were performed in THP1-Blue™ ISG cells stably expressing the different human STING isoforms and the IRF-inducible SEAP reporter construct. Cells were cultivated in RPMI1640 medium with 10% fetal calf serum, 50 μg/ml Penicillin-Streptomycin, 100 μg/ml Zeocin, and 100 μg/ml Normocin in a 37°, 95% humidity and 5% CO2 incubator.
In preparation for the assay, the cells were distributed into the assay plates with a density of 10000 cells/15 μL per well. Compounds were prepared by an 8 point serial dilution in 50% aqueous DMSO and a final dilution step into medium to ensure a final DMSO concentration of 0.5% in the assay. 5 μL of diluted compounds were added to the plates, followed by a 24 hours incubation at 37° C.
At the day of the assay, 75 μl per well of Quanti-Blue™ reagent was added to all wells of the plate and the plate was incubated another 30 minutes at 37° C. The OD at 620 nm was measured on the EnVision reader (PerkinElmer).
EC50 values and Hill slopes were derived from 8-point four parametric non-linear curve fittings with the Megalab software (Boehringer Ingelheim) using the OD at 620 nm.
Data of EC50 values can be found in tables 2a-2e.
Data of EC50 values on STING HAQ-variant can be found in table 2a. Shown data below were either derived from the parental THP1-Blue™ ISG cell lines (which express endogenously HAQ) or from genetically engineered THP1-Blue™ ISG cell lines in which first STING has been knocked-out and the HAQ specific STING isoform has been re-introduced as described above.

in vitro = conditions: human, Caco-2, pH 7.4
Procedure: Cellular Permeability Measurements
Caco-2 cells were obtained from Leibniz Institute DSMZ-German Collection of Microorganisms and Cell Cultures (Braunschweig, Germany) and cultured in DMEM (Dulbecco's modified Eagle medium) containing (in final concentrations) 10% FCS (fetal calf serum), 1% NEAA (non-essential amino acids), 2 mM Glutamin, 100 U/mL Penicillin and 100 μg/mL Streptomycin. Caco-2 cells were seeded either onto 24-well Transwell inserts (Corning, #3379) for bidirectional permeability assays at a density of 160,000 cells/cm^2 and cultured for 3 weeks, with media change on every second day.
For bidirectional permeability assays 10 mM DMSO stock solutions were diluted in transport buffer (final concentrations: 128.13 mM NaCl, 5.36 mM KCl, 1 mM MgSO4, 1.8 mM CaCl2, 4.17 mM NaHCO3, 1.19 mM Na2HPO4, 0.41 mM NaH2PO4, 15 mM 2-[4-(2-hydroxyethyl)piperazin-1-yl]ethanesulfonic acid (HEPES), 20 mM glucose, pH 7.4) containing 0.25% bovine serum albumin to a final concentration of 10 μM of the test compounds and added to the apical or basal compartment. Cells were incubated with the compounds for up to 2 h. Samples from the opposite compartment were taken at different timepoints.
Compound concentrations in the compartments were quantified using a RapidFire-based high-throughput HPLC/MS/MS system (high performance liquid chromatography/mass spectrometry; Bio-Cius) that was customized to a fully automated and flexible platform, termed RIAS. In this modified setup, the sample was aspirated by a vacuum pump into a 10 μL sample loop for 250 ms and flushed onto a C4 cartridge (3.8 μL bed volume; Bio-Cius) with the aqueous mobile phase (99.9% water, 0.09% formic acid, and 0.01% TFA; flow rate 1.5 mL/min). Prior to bioanalysis samples were spiked with internal standard solution and diluted with acetonitrile (ACN) for protein precipitation. Measurement was operated in multiplereaction monitoring (MRM) mode. Quantification was performed using external calibration. A solid-phase extraction step retained the analyte for 3000 ms while interfering matrix (e.g., buffer components) was removed. With a simple step gradient, the analyte was back-eluted from the cartridge for 3,000 ms with the organic mobile phase (99.9% acetonitrile/methanol [1:1, v:v], 0.09% formic acid, and 0.01% TFA) and flushed into the mass spectrometer at a flow rate of 1.25 mL/min. Afterwards, the cartridge was re-equilibrated with the aqueous mobile phase for 500 ms (flow rate 1.5 mL/min).
Apparent permeability coefficients in the apical to basal direction (Papp,AB) and in the basal to apical direction (Papp,BA) and efflux ratios were calculated as follows: Papp,AB=QAB/(C0·s·t) Papp,BA=QBA/(C0·s·t) Efflux ratio=Papp,BA/Papp,AB
where Q is the amount of compound recovered in the receiver compartment after the incubation time t, C0 the initial compound concentration given to the donor compartment, and s the surface area of the Transwell inserts. […] In addition, transepithelial electrical resistance (TEER) values are measured for each plate before the permeability assay, and total recovery in donor and receiver compartments was determined for each compound.

| Structure (SMILES) | EC50 (STING HAQ-variant) | Papp A→B at 10 μM (in vitro) | efflux ratio at 10 μM (in vitro) | thermal shift (ΔTm) [1] |
| --- | --- | --- | --- | --- |
| C#Cc1cccc2c(-c3cccc4nn(C)cc34)nn(-c3ccc(N4CC5C(C4)C5C(=O)O)nc3)c12 (stereo not shown) [Example #74, 3-(5-{7-ethynyl-2′-methyl-1H,2′H-[3,4′-biindazol]-1-yl}pyridin-2-yl)-3-azabicyclo[3.1.0]hexane-6-carboxylic acid] | 4.3 µM | – | – | 16 K |
| Cc1cccc2c(-c3cccc4nn(C)cc34)nn(-c3ccc(N4CC5CC4CO5)nc3)c12 (stereo not shown) [compound 11, 2′,7-dimethyl-1-(6-{2-oxa-5-azabicyclo[2.2.1]heptan-5-yl}pyridin-3-yl)-1H,2′H-3,4′-biindazole] | 3.2 µM | 27 ×10⁻⁶ cm/s | 0.3 | 21 K |
| Cc1cccc2c(-c3cccc4nn(C)cc34)nn(-c3ccc(N4CCC(N5CCCC5=O)CC4)nc3)c12 [compound 21, 1-[1-(5-{2′,7-dimethyl-1H,2′H-[3,4′-biindazol]-1-yl}pyridin-2-yl)piperidin-4-yl]pyrrolidin-2-one] | 4.7 µM | 23 ×10⁻⁶ cm/s | 0.3 | 20 K |
| Cc1cccc2c(-c3cccc4nn(C)cc34)nn(-c3ccc(N4CCC(C)(C(=O)O)CC4)nc3)c12 [compound 27, 1-(5-{2′,7-dimethyl-1H,2′H-[3,4′-biindazol]-1-yl}pyri-din-2-yl)-4-methylpiperi-dine-4-carboxylic acid] | 5.2 µM | 32 ×10⁻⁶ cm/s | 0.5 | 22 K |
| COCCNc1ccc(-n2nc(-c3cccc4nn(C)cc34)c3cccc(C)c32)cn1 [compound 14, 5-{2′,7-dimethyl-1H,2′H-[3,4′-biindazol]-1-yl}-N-(2-methoxyethyl)pyridin-2-amine] | 6.9 µM | 39 ×10⁻⁶ cm/s | 0.3 | 18 K |
| Cc1cccc2c(-c3cccc4nn(C)cc34)nn(-c3ccc(-c4ccc(S(C)(=O)=O)cc4)nc3)c12 [compound 73, 1-[6-(4-methanesulfonylphenyl)pyridin-3-yl]-2′,7-dimethyl-1H,2′H-3,4′-biindazole] | 4.4 µM | – | 0.5 | – |
| Cc1cccc2c(-c3cccn4nccc34)nn(-c3ccc(N4CCC(C(=O)O)CC4)nc3)c12 [compound 60, 1-[5-(7-methyl-3-{pyra-zolo[1,5-a]pyridin-4-yl}-1H-indazol-1-yl)pyridin-2-yl]piperidine-4-carboxylic acid] | 6.6 µM | 19 ×10⁻⁶ cm/s | 0.9 | – |
| CCOC(=O)C1CCN(c2ccc(-n3nc(-c4cccc5nn(C)cc45)c4cccc(C)c43)cn2)CC1 [compound 31, ethyl 1-(5-{2′,7-dimethyl-1H,2′H-[3,4′-biindazol]-1-yl}pyridin-2-yl)piperidine-4-carboxylate] | 5.4 µM | – | 0.6 | – |

Molecules with a lower EC50 (STING HAQ-variant), results first:

| EC50 (STING HAQ-variant) | Papp A→B at 10 μM (in vitro) | efflux ratio at 10 μM (in vitro) | Structure (SMILES) | thermal shift (ΔTm) [1] |
| --- | --- | --- | --- | --- |
| 3.1 µM | 39 ×10⁻⁶ cm/s | 0.4 | CC(=O)N(C)C1CCN(c2ccc(-n3nc(-c4cccc5nn(C)cc45)c4cccc(C)c43)cn2)C1 (stereo not shown) [Example #6, N-[1-(5-{2′,7-dimethyl-1H,2′H-[3,4′-biindazol]-1-yl}pyridin-2-yl)pyrrolidin-3-yl]-N-methylacetamide] | 22 K |
| 2.2 µM | – | 0.8 | Cc1cccc2c(-c3cccc4nn(C)cc34)nn(-c3ccc(N4CCC(c5cnn(C)c5)CC4)nc3)c12 [compound 20, 2′,7-dimethyl-1-{6-[4-(1-methyl-1H-pyrazol-4-yl)pi-peridin-1-yl]pyridin-3-yl}-1H,2′H-3,4′-biindazole] | 20 K |
| 1.9 µM | – | 0.4 | Cc1cccc2c(-c3cccc4nn(C)cc34)nn(-c3ccc(N4CCCN(C=O)CC4)nc3)c12 [compound 52, 4-(5-{2′,7-dimethyl-1H,2′H-[3,4′-biindazol]-1-yl}pyridin-2-yl)-1,4-di-azepane-1-carbalde-hyde] | 21 K |
| 1.9 µM | – | – | Cc1cccc2c(-c3cccc4nn(C)cc34)nn(-c3ccc(N4CCCNCC4)nc3)c12 [compound 45, 1-(6-(1,4-diazepan-1-yl)pyridin-3-yl)-2′,7-dimethyl-1H,2′H-3,4′-biindazole] | 19 K |
| 1.2 µM | – | – | Cc1cccc2c(-c3cccc4nn(C)cc34)nn(-c3ccc(N4CCN5C(=O)OCC5C4)nc3)c12 (stereo not shown) [compound 8, 7-(5-{2′,7-dimethyl-1H,2′H-[3,4′-biindazol]-1-yl}pyri-din-2-yl)-hexahydro-1H-[1,3]oxazolo[3,4-a]pyrazin-3-one] | 21 K |
| 1.1 µM | – | – | Cc1cccc2c(-c3cccc4nn(C)cc34)nn(-c3ccc(N4CC5(CCS(=O)(=O)CC5)C4)nc3)c12 [compound 4, 2-(5-{2′,7-dimethyl-1H,2′H-[3,4′-biindazol]-1-yl}pyri-din-2-yl)-7λ^6-thia-2-azaspiro[3.5]nonane-7,7-dione] | 20 K |
| 0.2 µM | – | – | COC(=O)c1ccc2c(-c3cccc4nn(C)cc34)nn(-c3ccc(N4CCC(S(C)(=O)=O)CC4)nc3)c2c1C [compound 25, methyl 1-[6-(4-meth-anesulfonylpiperidin-1-yl)pyridin-3-yl]-2′,7-di-methyl-1H,2′H-[3,4′-biindazole]-6-carboxylate] | 25 K |
